Assay results: PMC11259170, “Small-molecule probe for IBD risk variant GPR65 I231L alters cytokine signaling networks through positive allosteric modulation” (Science Advances, 2024)
Where two headings read alike, the source gives them in different places.

Tests used:
hGPR65 [1] = molecular target: T1, hGPR65 (Homo sapiens, UniProt Q8IYL9); test: cAMP detection (Lance Ultra), GPR65 KO HeLa reconstituted with hGPR65; 21K screen dose confirmation; type: cell-based; conditions: primary hit validation
T1 construct: expressed in transfected cells; host or cells: HeLa (ATCC CCL-2), lentiviral transduction, pLX317
Method: (§1) The Lance Ultra cAMP Kit (PerkinElmer, TRF0264) was used for cAMP detection, and included the following reagents: ULight anti-cAMP antibody, Eu-cAMP tracer, 7.5% BSA Stabilizer solution, and cAMP detection buffer. Stimulation buffer was prepared as described by the kit manufacturer as follows: Hanks buffered saline solution (HBSS, Life Technologies, 14025-126) containing 0.5 mM IBMX (3-isobutyl-1-methylxanthine, Sigma-Aldrich, I7018) and buffered with 1 M Hepes (15630-080). Stimulation buffer was then adjusted to pH 7.1 using 12 N HCl. HeLa cells were lifted using Versene and then suspended at 2.5 × 10^5 cells/ml in stimulation buffer. Cells were then plated at 20 μl per well (5000 cells per well) in white, opaque OptiPlate 384-well MicroPlates (PerkinElmer, 6007299) using a Thermo Fisher Scientific Combi liquid dispenser. Compounds, stored at 5 mM in DMSO for the primary screen, or in a range of concentrations from 39 μM to 20 mM for dose curves, were transferred by the CyBio CyBi-Well Vario pin transfer tool with 100-nl pins (V&P FP1NS50H, 50-nl slot, 0.457-mm diameter, hydrophobic coated), into each assay well, 100 nl per well for a final assay concentration of 25 μM for the primary screen, or 195 nM to 100 μM for dose curves. Assay plates were then incubated at RT for 30 min. Eu-cAMP tracer was diluted 1:33 into detection buffer and the final solution then distributed into assay wells, 5 μl per well. ULight anti-cAMP antibody was diluted 1:100 into detection buffer, then distributed into assay wells, also 5 μl per well. Assay plates were then incubated at RT in the dark for 1 hour. Eu-cAMP tracer and Förster resonance energy transfer (FRET) emissions were then read using a PerkinElmer EnVision Multimode plate reader (ENVISION21040010), exciting each well at 320 nm [UV2 (TRF) 320 filter] and reading emissions at 615 nm (Europium 615 filter) and 665 nm (APC665 filter). Data analysis was performed using Genedata Screener and GraphPad Prism.
(§2) HeLa KO cell lines were generated using the px330 plasmid CRISPR system as previously described ([18]). Briefly, HeLa cells were transfected with a Cas9 vector containing a gene-specific single-guide RNA to target the GPR65 coding exon. Forty-eight to 72 hours after transfection, single clones were obtained through limiting dilution and then sequenced to validate the KO. Reconstituted cell lines were produced by transducing KO cells with empty lentivirus or lentivirus containing hGPR65 or mGPR65. After 48 hours, cells were treated with puromycin (3 μg/ml; InvivoGen, ant-pr-1) and resistant cells were used in experiments.

[2] = Solubility in phosphate buffer; type: physicochemical; conditions: read-out: Solubility
human PBMCs = test: cAMP detection in human PBMCs; type: cell-based; conditions: 0 to 50 μM, 30 min, pH 7.2
Method: Human blood samples were collected from healthy donors at the Blood Donor Center at Massachusetts General Hospital in compliance with all relevant ethical regulations and according to protocol 2018P001504 approved by the Mass General Brigham Institutional Review Board. Donors provided informed written consent. Human PBMCs were isolated by density gradient separation using Ficoll-Paque PLUS (VWR- GE Life Sciences, catalog no. 17144002), as previously described ([54]). Isolated PBMCs were incubated overnight in DMEM (10% FBS, 0.2% sodium bicarbonate, 1X Glutamax) at 37°C, 5% CO2. Human monocytes were isolated from an unpurified Buffy Coat using RosetteSep human monocyte enrichment cocktail (StemCell Technologies, 15068) and frozen same day in FBS with 10% DMSO.
cAMP was measured in cells using the Lance Ultra cAMP Kit. Compound dose curves were prepared in an assay buffer, which was made according to the manufacturer’s guidelines using DMEM instead of HBSS. Assay buffer was adjusted to desired pH using 1 M HCl or NaOH. PBMCs were collected, centrifuged, and resuspended in assay buffer. Dose curves and cells were added to a white opaque OptiPlate (PerkinElmer, 6007290) at a density of 20,000 cells per well. […] Eu-cAMP tracer and FRET emissions were read using a PerkinElmer EnVision Multimode plate reader (ENVISION21040010). […]

human GPR4 (hGPR4) = molecular target: T2, human GPR4 (hGPR4) (Homo sapiens, UniProt P46093); test: cAMP detection in HeLa expression cell line, hGPR4; type: cell-based; conditions: highest concentration tested
T2 construct: expressed in transfected cells; host or cells: HeLa (ATCC CCL-2), lentiviral transduction, pLX317
Method: HeLa stable expression cell lines were produced by lentiviral transduction. Briefly, lentiviral plasmids for each GPCR with a C-terminal V5 Tag ([…]) were made in a pLX317 backbone using competent Escherichia coli (New England Biolabs, C3050H). Lenti-X 293 T (Takara, 632810) cells were transfected with the lentiviral plasmids to produce virus. Low-passage HeLa cells (American Type Culture Collection, CCL-2) were then transduced with lentivirus. After 48 hours, HeLa cells were cultured under selection with puromycin (3 μg/ml) and allowed to recover and expand before storing stocks in liquid nitrogen.
cAMP was measured in cells using the Lance Ultra cAMP Kit. HeLa cells were cultured under puromycin (3 μg/ml) selection. One day before the experiment, cells were seeded in T75 flasks and allowed to adhere overnight. On the day of the experiment, cells were washed twice with Dulbecco’s PBS and lifted using prewarmed 1× versene solution (Gibco, 15040066). Cells were counted in HBSS (Gibco, 14025092) and then resuspended in stimulation buffer prepared according to the manufacturer’s instructions and adjusted to pH 7.2 using 1 M sodium hydroxide. Cells were added to the plate at a density of 1500 cells per well in white opaque 384-well assay ready microplates containing 100 nl of 10 mM compound in DMSO. Cells were stimulated for 30 min at RT, then lysed and incubated with detection reagents for 1 hour in the dark at RT. Plates were read on BMG Labtech PHERAstar FSX (excitation, 337 nm; emission, 620 and 665 nm). Data analysis was performed using GraphPad Prism.

[3] = system: GPR65 KO HeLa cells + pLX empty vector; test: cAMP detection, GPR65 KO HeLa + empty pLX vector (null control); type: cell-based, human
Method: as §1, §2

hGPR65 [4] = molecular target: T1, hGPR65; test: cAMP detection in HeLa expression cell line, hGPR65; type: cell-based; conditions: for Emax: HeLa, relative to 100uM forskolin (100%) and DMSO (0%), read-out: hGPR Max Activity %
Procedure, shortened: (§3)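 Compound was dispensed from a 10 mM DMSO stock, and puromycin-selected HeLa lines carrying lentiviral V5-tagged receptor were added at 1500 cells/well in pH 7.2 stimulation buffer. After 30 min stimulation at room temperature, cells were lysed and detection ran 1 h in the dark before cAMP TR-FRET reading.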

hGPR65 [5] = molecular target: T1, hGPR65; test: cAMP detection (Lance Ultra), GPR65 KO HeLa reconstituted with hGPR65; 21K screen dose confirmation; type: cell-based
mGPR65 = molecular target: T3, mGPR65 (Mus musculus, UniProt Q61038); test: cAMP detection in HeLa expression cell line, mGPR65; type: cell-based; conditions: for Emax: HeLa, relative to 100uM forskolin (100%) and DMSO (0%), read-out: mGPR Max Activity %
T3 construct: expressed in transfected cells; host or cells: HeLa (ATCC CCL-2), lentiviral transduction, pLX317
Procedure, shortened: as §3

Lipophilicity (logD) = type: physicochemical; conditions: pH 7.4; pH7.4; read-out: LogD (pH7.4)
[6] = Solubility remark in the Comments column of the SAR table; type: physicochemical
Source text: Supplement sciadv.adn2339_data_s1_to_s4.zip/sciadv.adn2339_data_s2.xlsx, sheet "SAR cAMP Assay"

[7] = system: GFP-expressing HeLa cells; test: cAMP detection in HeLa expression cell line, GFP control; type: cell-based, human; conditions: Homo sapiens, HeLa, 2nd GFP column pair, NA = no activity
Procedure, shortened: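 HeLa cells stably expressing C-terminally V5-tagged receptor or GFP (lentiviral, puromycin 3 μg/ml) stimulated at 1500 cells per well for 30 min at RT with compound (10 mM DMSO stock) in stimulation buffer at pH 7.2. cAMP detected by Lance Ultra TR-FRET after lysis and 1 h detection, excitation 337 nm, emission 620/665 nm.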

[8] = 1st hGPR column pair, NA = no activity
[9] = 2nd hGPR column pair, NA = no activity
[10] = 2nd mGPR column pair, NA = no activity

T3 sequence (Q61038 whole entry): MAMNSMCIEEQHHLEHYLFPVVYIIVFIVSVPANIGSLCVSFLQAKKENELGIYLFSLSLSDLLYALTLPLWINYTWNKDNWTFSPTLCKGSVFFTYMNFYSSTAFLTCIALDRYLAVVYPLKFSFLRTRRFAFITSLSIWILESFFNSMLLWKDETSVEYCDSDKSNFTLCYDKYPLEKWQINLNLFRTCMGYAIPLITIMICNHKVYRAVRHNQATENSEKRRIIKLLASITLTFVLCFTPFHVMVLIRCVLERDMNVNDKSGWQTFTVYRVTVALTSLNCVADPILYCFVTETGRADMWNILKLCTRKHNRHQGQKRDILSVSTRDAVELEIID
T1 sequence (Q8IYL9 whole entry): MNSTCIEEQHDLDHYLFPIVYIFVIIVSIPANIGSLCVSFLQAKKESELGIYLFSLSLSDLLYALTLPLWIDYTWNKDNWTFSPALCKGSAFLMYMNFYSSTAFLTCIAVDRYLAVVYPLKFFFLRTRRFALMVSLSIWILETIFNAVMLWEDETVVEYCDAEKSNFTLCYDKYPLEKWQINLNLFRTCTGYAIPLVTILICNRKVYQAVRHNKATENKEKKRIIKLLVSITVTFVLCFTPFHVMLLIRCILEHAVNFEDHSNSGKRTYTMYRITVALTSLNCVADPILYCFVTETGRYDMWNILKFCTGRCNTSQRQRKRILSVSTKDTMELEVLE
T2 sequence (P46093 whole entry): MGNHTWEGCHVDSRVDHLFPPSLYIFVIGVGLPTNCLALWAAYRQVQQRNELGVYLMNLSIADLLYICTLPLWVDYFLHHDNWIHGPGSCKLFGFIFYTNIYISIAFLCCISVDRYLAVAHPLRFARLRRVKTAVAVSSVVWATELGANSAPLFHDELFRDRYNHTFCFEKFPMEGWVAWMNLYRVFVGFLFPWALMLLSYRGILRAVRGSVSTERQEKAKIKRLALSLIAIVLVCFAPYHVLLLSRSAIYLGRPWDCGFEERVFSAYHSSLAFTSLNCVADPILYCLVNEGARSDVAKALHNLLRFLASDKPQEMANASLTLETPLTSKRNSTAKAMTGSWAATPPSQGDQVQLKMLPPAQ

With COCc1ccc(-c2cc(O)n3ncc(C(=O)Nc4ccc(C)cc4)c3n2)cc1 [BRD2813, COCc1ccc(cc1)-c1cc(O)n2ncc(C(=O)Nc3ccc(C)cc3)c2n1] the “cAMP activity in hGPR65-expressing cells” value (hGPR65 [1]) was “dose-dependent activity”, the solubility [2] was < 1.56 µM and the “cAMP production in human PBMCs, compared” value (human PBMCs) was “outperformed BTB09089”. For the same molecule, the “cAMP relative to DMSO in the hGPR4 cells” value (human GPR4 (hGPR4)) was “decrease in cAMP”, the EC50 ([3]; Homo sapiens, 0.5 h, HeLa GPR65 KO + pLX, pH 7.1, 30 min, normalized to DMSO and 100 μM forskolin) was > 100000 nM and the “cAMP production in control cells” value ([3]; primary hit validation) was “without inducing cAMP production”. The Emax (hGPR65 [4]; [8]) was 78.8%, the Emax (hGPR65 [4]; [9]) was 79.2% and the EC50 (hGPR65 [4]; hGPR EC50 (uM), NA = no activity) was 0.866 µM. It also gave an EC50 (hGPR65 [4]; hGPR EC50 (uM), pH 7.2, 30 min) of 1.2 µM, an EC50 (hGPR65 [4]; hGPR EC50, NA = no activity) of 0.993 µM and an EC50 (hGPR65 [4]; hGPR EC50, pH 7.2, 30 min) of 0.724 µM. For the same molecule, the “pH of greatest compound effect” value (hGPR65 [5]; 0-50 μM, pH curves) was “between pH 7.1 and 7.3”, the “cAMP response, BRD2813 compared with BTB09089” value (hGPR65 [5]; 0 to 50 μM, pH 7.2) was “greater cAMP response” and the “shift in the pH response curve of GPR65” value (hGPR65 [5]; increasing concentrations, 0 to 50 μM) was “leftward shift”. The Emax (mGPR65; [10]) was 39.6%, the Emax (mGPR65; NA = no activity) was 35.8% and the EC50 (mGPR65; mGPR EC50 (uM), first pair of columns, pH 7.2, 30 min) was 0.942 µM. For the same molecule, the EC50 (mGPR65; mGPR EC50 (uM), second pair of columns, pH 7.2, 30 min) was 0.406 µM, the EC50 (mGPR65; mGPR EC50 (uM), NA = no activity) was 0.693 µM and the logD (Lipophilicity (logD)) was > 4.65.

Cc1ccc(NC(=O)c2cnn3c(O)cc(-c4ccc(-c5ccccc5C(C)C)cc4)nc23)cc1 [BRD4665] showed an EC50 (hGPR65 [4]; 1st hGPR column pair, NA = no activity, read-out: hGPR EC50) of 0.227 µM, an EC50 (hGPR65 [4]; 2nd hGPR column pair, NA = no activity, read-out: hGPR EC50) of 0.152 µM and an Emax (hGPR65 [4]; [8]) of 76.3%. For the same molecule, the Emax (hGPR65 [4]; [9]) was 79.6%, the “Comments (solubility)” value [6] was “Poor solubility” and the EC50 (mGPR65; 1st mGPR column pair, NA = no activity, read-out: mGPR EC50) was 0.787 µM. It also gave an EC50 (mGPR65; 2nd mGPR column pair, NA = no activity, read-out: mGPR EC50) of 0.627 µM, an Emax (mGPR65; [10]) of 33.2% and an Emax (mGPR65; NA = no activity) of 34.9%. For the same molecule, the EC50 [7] was 26400 nM and the Emax ([7]; relative to 100uM forskolin (100%) and DMSO (0%), read-out: GFP Max Activity %) was 12%.
